Assay results as given in patent US20040121936A1, “Composition” (Colgate-Palmolive Company, priority 2001, published 2004).
“Also recorded” adds a separate entry of the source.

Legend:
[1] = system: bacteria; assay: antibacterial efficacy by cup scrub method on humans against the composition without TCC; type: in vivo
Description: Using the formulation of Example 1 or Example 2 but with varying amounts of TCC, the amide wherein R is cocoyl, p is 2 and n is 1, and the alcohol wherein R′ is lauryl and q is 7, antibacterial efficacy is measured using a cup scrub method on humans against the composition without TCC.

[2] = stability of TCC in body cleansing composition (precipitate/crystals on storage); type: physicochemical; conditions: for Comments (precipitate/crystals of TCC): 0.15% TCC in body cleansing composition
Text: Further work on the usefulness of this invention may be seen in the stability data of Example 5. TCC at 0.15% was incorporated in a body cleansing composition of (which may also include the types described above). using Promidium CO alone and in combination with Laureth-7.

Row | Compound | log reduction of bacteria ([1]; TCC in the compositions, measured against a composition without TCC) | Comments (precipitate/crystals of TCC) ([2]; Promidium CO 0.675%, Laureth-7 0.675%) | Comments (precipitate/crystals of TCC) ([2]; Promidium CO 3.0%, Laureth-7 0.0%) | time for which no precipitate or crystals were observed ([2]; body cleansing composition with combination of Promidium CO and Laureth-7) | effect of presence on antibacterial efficacy ([1]; presence of Promidium Co and/or laureth-7 in the composition)
1 | O=C(Nc1ccc(Cl)cc1)Nc1ccc(Cl)c(Cl)c1 [TCC, 3,4,4′-trichlorocarbanilide] | greater than 1 log | no precipitate or crystals were observed; also recorded: No Precipitate or crystals even | precipitate/crystals of TCC were observed at the bottom of the container after 4-5 weeks; also recorded: Precipitate/Crystals in 4-5 Weeks | ≥ 13 weeks | 
2 | PPG-2 hydroxyethyl cocoamide [Promidium CO] |  |  |  |  | does not significantly affect antibacterial efficacy
